Patent publication US8962322B2, “Enhancers of induced pluripotent stem cell reprogramming” (City of Hope, priority 2012, dated 2015)
Read-outs that look alike come from different tables or passages of the source.

How the values were obtained:
human Oct4 promoter = test: Oct4-luc luciferase reporter assay (stably transfected CV1 cells); format: cell-based; conditions: for fold induction at 1 µM: compound at 1 μM, Oct4-luc cells, triplicates
Source text: A high-throughput screening scheme was designed to identify Oct4 promoter-activating compounds using a luciferase reporter under the control of the human Oct4 promoter (Oct4-luc). […] A stable cell line (Oct4-luc) that expresses luciferase reporter driven by the exogenous Oct4 promoter was established using hygromycin-resistance as a selection marker. These Oct4-luc cells were used for high-throughput screening of a chemical library of 80,000 compounds. The luciferase reporter activity was measured 24 hr after compound treatment. Solvent treatment was included as a negative control.
Then the promoter sequences were cloned into pGL4.4-luc-Hyg vector (Promega) to get Oct4-luc or Nanog-luc construct and the fidelity of the Oct4 and Nanog promoter DNA sequences was confirmed by bi-directional sequencing. CV 1 cells were transfected with the Oct4-luc or Nanog-luc constructs and the stably-transfected cells were selected by hygromycine resistance.
Compound Screening: The Oct4-luc cells were seeded at 1.75×10^4 cells per well density into 96-well plates. Compounds were added to cells one day after cell seeding at the concentration of 10 μM for 24 hr in the High-Throughput Screening core facility at City of Hope. Compounds that induced luciferase activity 3-fold or more were selected for further validation in both Oct4-luc and Nanog-luc cells.
Luciferase Reporter Assays: The Oct4-luc or Nanog-luc cells were treated with compound OAC 1 or its structural analogs at 1 μM concentration or at indicated concentrations in triplicates. Other compounds used include 2 μM BIO, 2 μM BIX, 2 μM
(§1) AzaC, 25 μg/ml Vc, 10 nM Am580, 5 μM tranylcypromine, and 0.5 mM VPA. Luciferase reporter assays were performed as described (51) 24 hr after compound treatment or at indicated time points. For Topflash reporter assays, 0.2 μg β-catenin-responsive Topflash reporter gene plasmid was introduced into CV1 cells using trasfection (Bio-Rad). Compounds were added 6 hr after transfection. Luciferase activity was measured 48 hr after compound treatment using the Glo Luciferase Assay System (Promega).

[1] = test system: β-catenin-responsive reporter gene Topflash; test: Topflash luciferase reporter assay in CV1 cells (Wnt signaling); format: cell-based; conditions: 1 μM OAC1 or 2 μM BIO, 48 hr
Protocol: Whether OAC1 regulates major signaling pathways that are critical for embryonic stem cell pluripotency was investigated. […] CV1 cells were transfected with the β-catenin-responsive reporter gene Topflash, and the transfected cells were treated with vehicle control or OAC1 (FIG. 6C). The glycogen synthase kinase 3β (GSK3β) inhibitor BIO was included as a positive control (42).
as §1

endogenous Nanog = test: RT-PCR of endogenous Nanog mRNA in treated MEFs; format: cell-based, mouse; conditions: versus vehicle
Protocol: (§2) MEFs were treated with vehicle control or OAC 1 to test whether OAC 1 activates endogenous Oct4 and Nanog gene transcription. […] Oct4, Sox2, and Nanog are central to the transcriptional regulatory hierarchy for ESC pluripotency, forming the core transcriptional regulatory circuitry in ESCs (37). […] OAC1 activated Sox2 mRNA expression, along with Oct4 and Nanog (FIG. 61).
(§3) RT-PCR analysis: Total RNA was purified with Trizol reagent (Invitrogen). Reverse transcription was performed with 1 μg of RNA using Omniscript® Reverse Transcription Kit (Qiagen). Quantitative PCR was performed using iTaq SYBR Green Supermix with Rox (Bio-rad) in Applied Biosystem Step one plus real-time PCR system. […]

Sox2 = test: RT-PCR of Sox2 mRNA in treated MEFs; format: cell-based, mouse; conditions: versus vehicle
Protocol: as §2, §3

Tet1 = test: RT-PCR of Tet1 mRNA in treated MEFs; format: cell-based, mouse; conditions: versus vehicle
Protocol: The up-regulation of Tet1 is intriguing, as this is a gene that converts 5-methylcytosine to 5-hydroxymethylcytosine and may be involved in active DNA demethylation.
as §3

In the case of `O=C(Nc1cc2cc[nH]c2cn1)c1ccccc1` [OAC1, N-(1H-6-azaindol-5-yl)benzamide], the “activation of Oct4-luc at 50 nM” value (human Oct4 promoter; 50 nM, two days after compound treatment) is reported as “activated Oct4-luc considerably”, the fold induction at 1 µM (human Oct4 promoter; Homo sapiens, CV-1, 24 h, read-out: Oct4-luc Activity) is reported as no less than 1.8 and the “induction of Oct4-luc, comparison with known reprogramming enhancers (in words)” value (human Oct4 promoter; OAC1 1 μM, BIO 2 μM, BIX 2 μM, AzaC 2 μM, Vc 25 μg/ml, Am580 10 nM, tranylcypromine 5 μM, VPA 0.5 mM, two days) is reported as “potent induction”. For the same compound, the fold induction at 1 µM (human Oct4 promoter; read-out: Oct4-luc fold Induction) was 5, the “concentration of highest induction of Oct4-luc” value (human Oct4 promoter; dose response 50 nM to 1 μM, 2 to 7 days) was 1 µM and the “activation of human Oct4 reporter (in words)” value (human Oct4 promoter; triplicate luciferase reporter assays) was “considerable activation”. For the same compound, the “effect on Topflash reporter activity” value [1] was “no effect”, the “endogenous Nanog mRNA expression” value (endogenous Nanog) was “activated” and the “Sox2 mRNA expression” value (Sox2) was “activated”. For the same compound, the “Tet1 mRNA expression” value (Tet1) was “up-regulated”.
